Converted amounts (≈) assume the structure as drawn. “Also recorded” adds a separate entry of the source. Like-named read-outs stand apart in the source and are kept apart here.
Tests used:
E. coli ATCC 25922 = experiment: Broth microdilution MIC; format: cell-based; conditions: for MIC: Escherichia coli, ATCC25922; for MIC effect on E. coli: SAR effect diagram
Description: (§1) A broth microdilution method was utilized to explore the minimum inhibitory concentrations (MIC) of all the newly synthesized compounds against E. coli ATCC 25922 and S. aureus ATCC 25923. Test compounds were prepared using dimethyl sulfoxide (DMSO) as a stock solution, followed by serial dilutions in Mueller Hinton broth containing up to one percent DMSO. At the end, a diluted bacterial suspension from a 0.5 McFarland tube was added to all the wells (the final volume of each well was 1 × 10^5 CFU/ml). In the growth control, a culture medium with bacteria was used as a positive control, and a culture medium without bacteria was used as a negative control (sterility control). The MIC was the lowest concentration of the synthesized compounds that produced no growth on the plate. Sulfisoxazole, functioning as a sulfonamide antibiotic, and gentamicin were employed in a comparative analysis of antibacterial activity, cytotoxicity, and apoptosis assessment.

S. aureus ATCC 25923 = experiment: Broth microdilution MIC; format: cell-based; conditions: for MIC effect on S. aureus: SAR effect diagram, Table 6; for MIC: Staphylococcus aureus, ATCC25923
Description: as §1

fibroblast L929 cells = experiment: Cytotoxicity assay by MTT; format: cell-based; conditions: Mus musculus, fibroblast L929 cell line, 24 h
Description: MTT was applied to evaluate the cytotoxicity of the newly synthesized compounds against fibroblast L929 cells (Pasteur Institute, Tehran, Iran). Briefly, 100 μl of cell suspension (1 × 10^4 cells/well) in RPMI 1640 medium, as seeded in 96-well microplates and incubated for 24 h (37 °C, 5% CO2 air humidified). After removing the old media, 100 µl of each of the newly synthesized compounds was added to each well at different concentrations. The plates were incubated for another 24 h in the same condition. To determine the positive and negative controls, doxorubicin and DMSO were used. Cell survival was determined by adding 10 µL of an MTT solution (5 mg/ml in PBS) to each well and incubating at 37 °C for 3 h. The previous MTT-containing media was then removed, and 100 µL DMSO was pipetted into each well to dissolve the produced formazan crystals. Using an ELISA plate reader (Startfix-2100, Awareness, USA), absorbance was measured at 570 nm. By plotting the percentage of cytotoxicity versus concentration of the produced compounds, the concentrations that inhibit half of the cell population (IC50) were determined. A mean and standard deviation (SD) are used to represent the results. The percentage cell viability was calculated using the formula: Viability=Absorbance \, of \, treated \, cells-background \, absorbance(b)/Absorbance \, of \, untreated \, cells(c)-background \, absorbance(b)×100 where (b) = blank, and (c) = control.

[1] = Apoptosis Annexin V binding assay (flow cytometry); format: cell-based; conditions: mouse, L929 fibroblast cells; L929, IC50 concentration, Annexin V-FITC/PI
Description: (§2) To detect apoptosis, the Annexin V binding assay was used. The assay was performed according to the manufacturer's instructions using a FITC Annexin V Apoptosis Detection Kit with PI from BioLegend® (San Diego, California). To conduct this test, the fibroblast L929 cell line (Pasteur Institute, Tehran, Iran) was treated with various concentrations of the newly synthesized compounds and then incubated for 24 h at 37 °C with 5% CO2. Subsequently, each well's supernatant was removed and the cells were washed with PBS. Each well was then filled with 500 μl of Annexin-binding buffer (10 mM HEPES, 140 mM NaCl, and 2.5 mM CaCl2, pH 7.4) and 10 μl of Annexin V and PI. For 15 min, the plates were incubated at room temperature and kept away from light. After incubation, using a BD FACSCalibur flow cytometer (Biosciences, San Jose, CA, USA), the cells were examined after incubation. FlowJo software (version 10.5.3, TreeStar Incorporated, Ashland, OR) was used to analyze flow cytometry data.

[2] = tested on: fibroblast L929 cell line; experiment: Apoptosis Annexin V binding assay (flow cytometry); format: cell-based; conditions: for apoptotic effects: at the IC50 concentration
Description: as §2

[3] = Table 6, antibacterial activity against E. coli, read-out: MIC for E. coli ATCC 25922
[4] = microdilution method, read-out: Minimum inhibitory concentrations (MIC) E. coli ATCC 25922
[5] = Table 7, read-out: MIC for S. aureus
[6] = microdilution method, read-out: Minimum inhibitory concentrations (MIC) S. aureus ATCC 25923

With `CC(=O)Nc1ccc(S(=O)(=O)Nc2ccc3c(c2)OC(N)=C(C#N)C3c2ccc(F)cc2)cc1` (stereo not drawn) [7b, N-[4-[2-amino-3-cyano-4-(4-fluoro-phenyl)-4H-chromene-7-ylsulfamoyl]-phenyl}-acetamide] as the molecule, how does the melting point read?
Its melting point is 230 to 233 °C.

And the MIC (E. coli ATCC 25922; [3])?
The MIC was 128 µg/mL (≈ 267 µM).

What about the MIC (E. coli ATCC 25922; [4]) of the same molecule?
The MIC was 128 µg/mL (≈ 267 µM).

And the “MIC effect on E. coli” value (E. coli ATCC 25922)?
The value was “Positive”.

And the “MIC effect on S. aureus” value (S. aureus ATCC 25923)?
Its value is “Positive”.

What about the MIC (S. aureus ATCC 25923; [5]) of the same molecule?
Its MIC is 128 µg/mL (≈ 267 µM).

And the MIC (S. aureus ATCC 25923; [6])?
Its MIC is 128 µg/mL (≈ 267 µM).

What about the IC50 (fibroblast L929 cells) of the same molecule?
The IC50 was 182 µg/mL (≈ 380 µM).

Which results are given for `CC(=O)Nc1ccc(S(=O)(=O)Nc2ccc3c(c2)OC(N)=C(C#N)C3c2ccc(Cl)cc2)cc1` (stereo not drawn) [8b, N-[4-[2-amino-3-cyano-4-(4-chloro-phenyl)-4H-chromene-7-ylsulfamoyl]-phenyl}-acetamide]?
antibacterial effect on E. coli (MIC results) (E. coli ATCC 25922): robust antibacterial effect; MIC (E. coli ATCC 25922; [3]): 64 µg/mL (≈ 129 µM); MIC (E. coli ATCC 25922; [4]): 64 µg/mL (≈ 129 µM); MIC effect on E. coli (E. coli ATCC 25922): Positive; antibacterial effect on S. aureus (MIC results) (S. aureus ATCC 25923): robust antibacterial effect; MIC effect on S. aureus (S. aureus ATCC 25923): Positive; MIC (S. aureus ATCC 25923; [5]): 32 µg/mL (≈ 64.7 µM); MIC (S. aureus ATCC 25923; [6]): 32 µg/mL (≈ 64.7 µM); viability at 24 h [1]: 43.2%; induced cell death ([2]; L929 cells, 24 h, IC50 concentration of each compound): 56.8%; IC50 (fibroblast L929 cells): 90 µg/mL (≈ 182 µM)

For `COc1ccc(C2C(C#N)=C(N)Oc3cc(NS(=O)(=O)c4ccc(NC(C)=O)cc4)ccc32)cc1OC` (stereo not drawn) [9b, N-[4-[2-amino-3-cyano-4-(3,4-dimethoxy-phenyl)-4H-chromene-7-ylsulfamoyl]-phenyl}-acetamide], which melting point is on record?
The melting point was 235 to 238 °C.

What about the MIC (E. coli ATCC 25922; [3]) of the same molecule?
Its MIC is 256 µg/mL (≈ 492 µM).

And the MIC (E. coli ATCC 25922; [4])?
Its MIC is 256 µg/mL (≈ 492 µM).

What about the “MIC effect on E. coli” value (E. coli ATCC 25922) of the same molecule?
The value was “neutral or negative; also recorded: Neutral”.

What about the “MIC effect on S. aureus” value (S. aureus ATCC 25923) of the same molecule?
The value was “Negative”.

And the MIC (S. aureus ATCC 25923; [5])?
The MIC was over 512 µg/mL.

What about the MIC (S. aureus ATCC 25923; [6]) of the same molecule?
Its MIC is over 512 µg/mL.

What about the IC50 (fibroblast L929 cells) of the same molecule?
The IC50 was 234 µg/mL (≈ 450 µM).

Which results are given for `CSc1ccc(C2C(C#N)=C(N)Oc3cc(NS(=O)(=O)c4ccccc4)ccc32)cc1` (stereo not drawn) [10b, N-(2-amino-3-cyano-4-(4-(methylthio)phenyl)-4H-chromen-7-yl)benzenesulfonamide]?
melting point: 135 to 138 °C; MIC (E. coli ATCC 25922; [3]): 256 µg/mL (≈ 569 µM); MIC (E. coli ATCC 25922; [4]): 256 µg/mL (≈ 569 µM); MIC effect on E. coli (E. coli ATCC 25922): neutral or negative; also recorded: Neutral; MIC effect on S. aureus (S. aureus ATCC 25923): Negative; MIC (S. aureus ATCC 25923; [5]): > 512 µg/mL; MIC (S. aureus ATCC 25923; [6]): > 512 µg/mL; IC50 (fibroblast L929 cells): 247 µg/mL (≈ 549 µM)

What does the source list for `N#CC1=C(N)Oc2cc(NS(=O)(=O)c3ccccc3)ccc2C1c1ccccc1F` (stereo not drawn) [11b, N-(2-amino-3-cyano-4-(2-fluorophenyl)-4H-chromen-7-yl) benzenesulfonamide]?
melting point: 122 to 125 °C; MIC (E. coli ATCC 25922; [3]): 256 µg/mL (≈ 607 µM); MIC (E. coli ATCC 25922; [4]): 256 µg/mL (≈ 607 µM); MIC effect on E. coli (E. coli ATCC 25922): neutral or negative; also recorded: Neutral; MIC effect on S. aureus (S. aureus ATCC 25923): Neutral; MIC (S. aureus ATCC 25923; [5]): 256 µg/mL (≈ 607 µM); MIC (S. aureus ATCC 25923; [6]): 256 µg/mL (≈ 607 µM); IC50 (fibroblast L929 cells): 162 µg/mL (≈ 384 µM)

Which results are given for `CNC(C)C1CCC(N)C(OC2C(N)CC(N)C(OC3OCC(C)(O)C(NC)C3O)C2O)O1` (stereo not drawn) [Gentamicin, reference compound]?
MIC (E. coli ATCC 25922; [4]): 4 µg/mL (≈ 8.38 µM); MIC (S. aureus ATCC 25923; [6]): 4 µg/mL (≈ 8.38 µM); apoptotic effects [2]: neither Sulfisoxazole nor Gentamicin demonstrated apoptotic effects; IC50 (fibroblast L929 cells): 182 µg/mL (≈ 381 µM)

For `Cc1noc(NS(=O)(=O)c2ccc(N)cc2)c1C` [Sulfisoxazole, reference compound], which MIC (E. coli ATCC 25922; [4]) is on record?
Its MIC is 256 µg/mL (≈ 958 µM).

And the MIC (S. aureus ATCC 25923; [6])?
The MIC was 256 µg/mL (≈ 958 µM).

And the apoptotic effects [2]?
The apoptotic effects was “neither Sulfisoxazole nor Gentamicin demonstrated apoptotic effects”.

What about the IC50 (fibroblast L929 cells) of the same molecule?
Its IC50 is 218 µg/mL (≈ 816 µM).
